Structures are written as SMILES.

Broadly, the EC50 is the concentration that produces a half-maximal response. Low readings indicate an effect from little substance, high ones a need for much substance.

This experiment has as its system parasites (ring stage parasites, parasite growth). The experiment is described as follows: Parasite LDH growth assay (Parasite Assay), antiparasite potency. Type of experiment: cell-based. As to conditions: 72 hours growth, LDH readout; Table 3. As to the method:
Assessing Antiparasite Potency in a Parasite LDH Growth Assay (Parasite Assay) The parasite stock was maintained at […] in RPMI-Hepes media buffered with sodium bicarbonate and supplemented with […]. […] On the day of assay set up, a blood smear of the parasite culture was Giemsa stained and counted. The parasitemia was adjusted to 0.7% rings and the haematocrit was diluted to 2% in RPMI-Hepes media buffered with sodium bicarbonate and supplemented with 500 heat inactivated human serum and 0.5% albumax. 30 ul of diluted parasites are then added into 10 ul of media+compound in pre-prepared Greiner TC assay plates. Parasite assay plates were placed in gassed humidified boxes in single layer and allowed to incubate at 37° C. for 72 hours. After 72 hours growth, assay plates are sealed with parafilm and frozen flat, in single file at −80° C. overnight. On the following day, assay plates are allowed to thaw at room temperature for 4 hours to which an LDH assay is performed to measure parasite growth.
`CCC1(CC)CC(=O)N(CC2C(C(=O)N[C@H]3CC(C)(C)Oc4ccccc43)C2(F)F)C(=N)N1` (single isomer, unassigned) [Example 16A]: the EC50 is 33 nM.
The value for `CCC1(CC)CC(=O)N(CC2C(C(=O)N[C@H]3CC(C)(C)Oc4ccccc43)C2(F)F)C(=N)N1` (single isomer, unassigned) [Example 16B] was 119 nM; that for `CCC1(CC)CC(=O)N(CC2C(C(=O)N[C@H]3C[C@H](C(F)(F)F)Oc4ccccc43)C2(F)F)C(=N)N1` (single isomer, unassigned) [Example 17A] was 47 nM.
As to `CCC1(CC)CC(=O)N(CC2C(C(=O)N[C@H]3C[C@H](C(F)(F)F)Oc4ccccc43)C2(F)F)C(=N)N1` (single isomer, unassigned) [Example 17B], the EC50 came to 20 nM.
The compound `CCC1(CC)CC(=O)N(C[C@@H]2C(C)[C@H]2C(=O)N[C@H]2CC(C)(C)Oc3ccccc32)C(=N)N1` (single isomer, unassigned) [Example 25A] had an EC50 of 84 nM.
The figure for `CCC1(CC)CC(=O)N(C[C@@H]2C(C)[C@H]2C(=O)N[C@H]2CC(C)(C)Oc3ccccc32)C(=N)N1` (single isomer, unassigned) [Example 25B] is 25 nM; for `CCC1(CC)CC(=O)N(C[C@@H]2C(C)[C@H]2C(=O)N[C@@H]2c3ccccc3CC2(C)O)C(=N)N1` (single isomer, unassigned) [Example 29A] it is 203 nM.
The figure for `CCC1(CC)CC(=O)N(C[C@@H]2C(C)[C@H]2C(=O)N[C@@H]2c3ccccc3CC2(C)O)C(=N)N1` (single isomer, unassigned) [Example 29B] is 351 nM; for `CCC1(CC)CC(=O)N(C[C@@H]2C(C)[C@H]2C(=O)N[C@@H]2c3ccccc3CC2(C)O)C(=N)N1` (single isomer, unassigned) [Example 29C] it is 113 nM.
The value for `CCC1(CC)CC(=O)N(C[C@@H]2C(C)[C@H]2C(=O)N[C@@H]2c3ccccc3OC(C)(C)[C@H]2O)C(=N)N1` (single isomer, unassigned) [Example 30A] was 45 nM.
The compound `CCC1(CC)CC(=O)N(C[C@@H]2C(C)[C@H]2C(=O)N[C@@H]2c3ccccc3OC(C)(C)[C@H]2O)C(=N)N1` (single isomer, unassigned) [Example 30B] registered an EC50 of 7.7 nM.
In turn, `CCC1(CC)CC(=O)N(C[C@@H]2C(C)[C@H]2C(=O)N[C@@H]2c3ccccc3OCC2(C)O)C(=N)N1` (single isomer, unassigned) [Example 35A] showed an EC50 of 85 nM.
The value for `CCC1(CC)CC(=O)N(C[C@@H]2C(C)[C@H]2C(=O)N[C@@H]2c3ccccc3OCC2(C)O)C(=N)N1` (single isomer, unassigned) [Example 35B] was 220 nM; that for `CC1[C@@H](C(c2cccnc2)N2C(=N)NC(C)(C)CC2=O)[C@@H]1C(=O)N[C@H]1C[C@H](C(F)(F)F)Oc2ccccc21` (single isomer, unassigned) [Example 54A] was 1 nM; that for `CC1[C@@H](C(c2cccnc2)N2C(=N)NC(C)(C)CC2=O)[C@@H]1C(=O)N[C@H]1C[C@H](C(F)(F)F)Oc2ccccc21` (single isomer, unassigned) [Example 54B] was 130 nM.
In turn, `CCC1(C)CC(NC(=O)[C@@H]2C[C@H]2[C@@H](CCOC)N2C(=N)NC(C)(C)CC2=O)c2ccccc2O1` (single isomer, unassigned) [Example 75B] yielded a concentration giving a half-maximal response (EC50) of 7.5 nM.
The value for `CCC1(C)CC(NC(=O)[C@@H]2C[C@H]2[C@@H](CCOC)N2C(=N)NC(C)(C)CC2=O)c2ccccc2O1` (single isomer, unassigned) [Example 75C] was 7 nM.
In turn, `CCC1(C)CC(NC(=O)[C@@H]2C[C@H]2[C@@H](CCOC)N2C(=N)NC(C)(C)CC2=O)c2ccccc2O1` (single isomer, unassigned) [Example 75D] had an EC50 of 7 nM.
Turning to `CC(C)C1(C)CC(NC(=O)[C@@H]2C[C@H]2CN2C(=N)NC(C)(C)CC2=O)c2ccccc2O1` (single isomer, unassigned) [Example 79B], the midpoint of the response, the EC50, lay at 275 nM.
The compound `CC(C)C1(C)CC(NC(=O)[C@@H]2C[C@H]2CN2C(=N)NC(C)(C)CC2=O)c2ccccc2O1` (single isomer, unassigned) [Example 79C] showed an EC50 of 289 nM.
Consider `COCC[C@H]([C@@H]1C[C@H]1C(=O)NC1CC(C)(C(C)C)Oc2ccccc21)N1C(=N)NC(C)(C)CC1=O` (single isomer, unassigned) [Example 80A], for which the EC50 was 9.4 nM.
The value for `COCC[C@H]([C@@H]1C[C@H]1C(=O)NC1CC(C)(C(C)C)Oc2ccccc21)N1C(=N)NC(C)(C)CC1=O` (single isomer, unassigned) [Example 80B] was 6.6 nM; that for `COCC[C@H]([C@@H]1C[C@H]1C(=O)NC1CC(C)(C(C)C)Oc2ccccc21)N1C(=N)NC(C)(C)CC1=O` (single isomer, unassigned) [Example 80C] was 14 nM.
Compound `COCC[C@H]([C@@H]1C[C@H]1C(=O)NC1CC(C)(C(C)C)Oc2ccccc21)N1C(=N)NC(C)(C)CC1=O` (single isomer, unassigned) [Example 80D] came in with an EC50 of 21 nM.
`CC(C)C1(C)CC(NC(=O)[C@@H]2C[C@H]2[C@@H](c2cccnc2)N2C(=N)NC(C)(C)CC2=O)c2ccccc2O1` (single isomer, unassigned) [Example 81A] registered an EC50 of 2.7 nM.
`CC(C)C1(C)CC(NC(=O)[C@@H]2C[C@H]2[C@@H](c2cccnc2)N2C(=N)NC(C)(C)CC2=O)c2ccccc2O1` (single isomer, unassigned) [Example 81B] registered an EC50 of 1 nM.
The figure for `CC(C)C1(C)CC(NC(=O)[C@@H]2C[C@H]2[C@@H](c2cccnc2)N2C(=N)NC(C)(C)CC2=O)c2ccccc2O1` (single isomer, unassigned) [Example 81C] is 0.9 nM.
Compound `CC(C)C1(C)CC(NC(=O)[C@@H]2C[C@H]2[C@@H](c2cccnc2)N2C(=N)NC(C)(C)CC2=O)c2ccccc2O1` (single isomer, unassigned) [Example 81D] showed an EC50 of 1.3 nM. This EC50 and that of the compound before are within 1.5-fold of each other.
The compound `COCC[C@H]([C@@H]1C[C@H]1C(=O)NC1CC(C)(COC)Oc2ccccc21)N1C(=N)NC(C)(C)CC1=O` (single isomer, unassigned) [Example 82A] yielded an EC50 of 24.4 nM.
In turn, `COCC[C@H]([C@@H]1C[C@H]1C(=O)NC1CC(C)(COC)Oc2ccccc21)N1C(=N)NC(C)(C)CC1=O` (single isomer, unassigned) [Example 82B] registered an EC50 of 57 nM. This EC50 is about 2.3-fold higher than that of the compound before.
In the case of `COCC[C@H]([C@@H]1C[C@H]1C(=O)NC1CC(C)(COC)Oc2ccccc21)N1C(=N)NC(C)(C)CC1=O` (single isomer, unassigned) [Example 82C], the midpoint of the response, the EC50, lay at 53 nM. The EC50 values of the last two compounds are within 1.5-fold of each other.
In turn, `COCC[C@H]([C@@H]1C[C@H]1C(=O)NC1CC(C)(COC)Oc2ccccc21)N1C(=N)NC(C)(C)CC1=O` (single isomer, unassigned) [Example 82D] showed an EC50 of 27 nM.
`CC1(C)CC(=O)N([C@H](c2cccnc2)[C@@H]2C[C@H]2C(=O)NC2CC(C)(C)Oc3ccc(F)cc32)C(=N)N1` (single isomer, unassigned) [Example 98A] had an EC50 of 0.9 nM.
The figure for `CC1(C)CC(=O)N([C@H](c2cccnc2)[C@@H]2C[C@H]2C(=O)NC2CC(C)(C)Oc3ccc(F)cc32)C(=N)N1` (single isomer, unassigned) [Example 98B] is 2.2 nM; for `CC[C@]1(C)CC(=O)N(C(c2cncc(F)c2)[C@@H]2C[C@H]2C(=O)N[C@@H]2c3ccccc3OC(C)(C)C2(C)O)C(=N)N1` (single isomer, unassigned) [Example 103A] it is 29 nM; for `CC[C@]1(C)CC(=O)N(C(c2cncc(F)c2)[C@@H]2C[C@H]2C(=O)N[C@@H]2c3ccccc3OC(C)(C)C2(C)O)C(=N)N1` (single isomer, unassigned) [Example 103B] it is 2.1 nM.
`CC[C@]1(C)CC(=O)N(C(c2cncc(F)c2)[C@@H]2C[C@H]2C(=O)NC2c3ccccc3OC(C(F)(F)F)C2O)C(=N)N1` (single isomer, unassigned) [Example 104A] came in with a 50% effective concentration (EC50) of 4 nM.
Regarding `CC[C@]1(C)CC(=O)N(C(c2cncc(F)c2)[C@@H]2C[C@H]2C(=O)NC2c3ccccc3OC(C(F)(F)F)C2O)C(=N)N1` (single isomer, unassigned) [Example 104B], it took 22 nM to reach a half-maximal effect (EC50). Compared with the last compound, the EC50 is about 5.5-fold higher.
The value for `CCC1(C)CC(NC(=O)[C@@H]2C[C@H]2[C@@H](c2cccnc2)N2C(=N)NC(C)(C)CC2=O)c2ccccc2O1` (single isomer, unassigned) [Example 105A] was 0.9 nM; that for `CCC1(C)CC(NC(=O)[C@@H]2C[C@H]2[C@@H](c2cccnc2)N2C(=N)NC(C)(C)CC2=O)c2ccccc2O1` (single isomer, unassigned) [Example 105B] was 1.8 nM; that for `CCC1(C)CC(NC(=O)[C@@H]2C[C@H]2[C@@H](c2cccnc2)N2C(=N)NC(C)(C)CC2=O)c2ccccc2O1` (single isomer, unassigned) [Example 105C] was 0.8 nM.
`CCC1(C)CC(NC(=O)[C@@H]2C[C@H]2[C@@H](c2cccnc2)N2C(=N)NC(C)(C)CC2=O)c2ccccc2O1` (single isomer, unassigned) [Example 105D] came in with an EC50 of 0.9 nM.
The figure for `COCC1(C)CC(NC(=O)[C@@H]2C[C@H]2[C@@H](c2cccnc2)N2C(=N)NC(C)(C)CC2=O)c2ccccc2O1` (single isomer, unassigned) [Example 108A] is 70 nM.
The figure for `COCC1(C)CC(NC(=O)[C@@H]2C[C@H]2[C@@H](c2cccnc2)N2C(=N)NC(C)(C)CC2=O)c2ccccc2O1` (single isomer, unassigned) [Example 108B] is 3.7 nM.

Source of the values: patent publication US12338219B2, “Antimalarial agents” (Merck Sharp & Dohme LLC, priority 2019, dated 2025).
